Measured values published in patent US6613897B1, “Compounds having glucuronic acid derivatives and glucosamine derivative in the structure, process for producing the same and utilization thereof” (Maruha Corporation, priority 1998, dated 2003).
Like-named read-outs stand apart in the source and are kept apart here.

Experiments:
[1] = test system: bovine aortic vascular endothelial cells; experiment: Vascular endothelial cell growth promoting action (BrdU uptake); type: cell-based; details: 20 hours
Description: This test used bovine aortic vascular endothelial cells (passage number 3) as cells, and MEM containing 10% FCS (fetal calf serum), 100 units/mL penicillin G, and 100 μg/mL streptomycin as a culture medium. […] Culture was performed for 20 hours at 37° C. and 5% CO2, and then the effect of the compounds on vascular endothelial cell growth was measured using “Cell Growth ELISA, BrdU Color Development Kit” (Boehringer Mannheim) (uptake of 5-bromodeoxyuridine (BrdU) was adopted as an indicator).

[2] = test system: bovine aortic vascular endothelial cells
Description: A test was conducted to investigate the interaction of the compounds of the invention with vascular endothelial growth factor (VEGF). As the VEGF, human recombinant VEGF was used (Vascular Endothelial Growth Factor, Human, Recombinant, For Biochemical Use: a product of Wako Pure Chemical Industries).
The test was conducted in the same manner as in Example 12, but VEGF (final concentration 10 ng/mL) was added simultaneously with the addition of the compound. As comparative tests, a VEGF single addition test (a test in which only VEGF was added) and a negative control test (a test in which neither the compound nor VEGF was added) were performed. The effect on vascular endothelial cell growth was measured in the same way as in Example 12.
The vascular endothelial cell growth promoting action of each of the compounds was evaluated from the following equation:
Promoting rate (%)={(Increase in the BrdU uptake in the compound addition test)/(Increase in the BrdU uptake in the negative control test)}×100

[3] = test system: rabbit platelet rich plasma; details: read-out: 50% Inhibitory Concentration; collagen-induced platelet aggregation, rabbit PRP
Description: Blood was taken from the rabbit aorta in an amount of 9 volumes of the blood per volume of a 3.8% aqueous solution of sodium citrate. The blood sample was immediately centrifuged (50×g, 10 min, room temperature) to obtain platelet rich plasma (PRP) as a supernatant. […] The mixture was held for 1 minute at 37° C., and then 10 μL of 10 μg/mL collagen (bovine tendon collagen: a product of Meiji Yakuhin) was added as an aggregation inducer. An aggregation curve was recorded for 7 minutes after addition.

[4] = compound concentration 0.1 μg/mL
[5] = compound concentration 0.5 μg/mL
[6] = compound concentration 10 μg/mL
[7] = compound concentration 0.1 μg/mL + VEGF 10 ng/mL
[8] = compound concentration 0.5 μg/mL + VEGF 10 ng/mL
[9] = compound concentration 1 μg/mL + VEGF 10 ng/mL
[10] = compound concentration 5 μg/mL + VEGF 10 ng/mL
[11] = compound concentration 10 μg/mL + VEGF 10 ng/mL

Substance | Promoting rate [1, 4] [%] | Promoting rate [1, 5] [%] | Promoting rate ([1]; compound concentration 1 μg/mL) [%] | Promoting rate ([1]; compound concentration 5 μg/mL) [%] | Promoting rate [1, 6] [%] | Promoting rate [2, 7] [%] | Promoting rate [2, 8] [%] | Promoting rate [2, 9] [%] | Promoting rate [2, 10] [%] | Promoting rate [2, 11] [%] | IC50 [3] [nM] | Promoting rate ([2]; VEGF added alone, 10 ng/mL (compound concentration 0)) [%]
4-deoxy-α-L-threo-hexa-4-enepyranuronosyl-(1→3)-O-2-acetamide-2-deoxy-β-D-glucopyranosyl-(1→4)-3-O-β-D-glucopyranuronic acid [Compound Example 7] | 104.8 | 139.7 | 172.6 | 170.0 | 129.7 | 165.0 | 206.2 | 235.9 | 228.7 | 191.3 |  | 
4-deoxy-α-L-threo-hexa-4-enepyranuronosyl-(1→3)-O-2-acetamide-2-deoxy-β-D-glucopyranosyl-(1→4)-3-O-β-D-glucopyranuronitol [Compound Example 9] | 102.8 | 139.5 | 180.3 | 179.3 | 133.4 | 159.8 | 200.2 | 245.6 | 244.2 | 196.8 |  | 
4-deoxy-α-L-threo-hexa-4-enepyranuronosyl-(1→3)-O-2-acetamide-2-deoxy-β-D-glucopyranosyl-(1→4)-3-O-β-D-glucopyranuronosyl-(1→3)-O-2-acetamide-2-deoxy-β-D-glucopyranitol [Compound Example 5] | 101.1 | 144.2 | 182.7 | 169.9 | 141.1 | 160.9 | 205.0 | 243.8 | 231.1 | 200.4 |  | 
4-deoxy-α-L-threo-hexa-4-enepyranuronosyl-(1→3)-O-2-acetamide-2-deoxy-β-D-glucopyranosyl-(1→4)-3-O-β-D-glucopyranuronosyl-(1→3)-O-2-acetamide-2-deoxy-β-D-glucopyranose [Compound Example 1] |  |  |  |  |  |  |  |  |  |  | 2700 | 
4-deoxy-α-L-threo-hexa-4-enepyranuronosyl-(1→3)-O-2-acetamide-2-deoxy-β-D-glucopyranosyl-(1→4)-3-O-β-D-glucopyranuronosyl-(1→3)-O-2-acetamide-2-deoxy-β-D-glucopyranosyl-(1→4)-3-O-β-D-glucopyranuronic acid [Compound Example 8] | 103.3 | 140.9 | 181.1 | 168.7 | 141.3 | 168.7 | 202.9 | 251.2 | 224.9 | 199.2 | 3.8 | 
4-deoxy-α-L-threo-hexa-4-enepyranuronosyl-(1→3)-O-2-acetamide-2-deoxy-β-D-glucopyranosyl-(1→4)-3-O-β-D-glucopyranuronosyl-(1→3)-O-2-acetamide-2-deoxy-β-D-glucopyranosyl-(1→4)-3-O-β-D-glucopyranuronosyl-(1→3)-O-2-acetamide-2-deoxy-β-D-glucopyranitol [Compound Example 6] | 100.5 | 143.8 | 167.9 | 168.8 | 142.2 | 159.8 | 205.2 | 232.2 | 224.8 | 205.7 | 2.7 | 
4-deoxy-α-L-threo-hexa-4-enepyranuronosyl-(1→3)-O-2-acetamide-2-deoxy-β-D-glucopyranosyl-(1→4)-3-O-β-D-glucopyranuronosyl-(1→3)-O-2-acetamide-2-deoxy-β-D-glucopyranosyl-(1→4)-3-O-β-D-glucopyranuronosyl-(1→3)-O-2-acetamide-2-deoxy-β-D-glucopyranose [Compound Example 2] |  |  |  |  |  |  |  |  |  |  | 3.2 | 
VEGF |  |  |  |  |  |  |  |  |  |  |  | 148.5
